pKi: −log10 of the molar value.
Molecular target: T1, M3 muscarinic receptor subtype (hM3) (Homo sapiens, UniProt P20309)
T1 construct: expressed in transfected cells
Assay: Radioligand binding assay ([3H]-NMS displacement, CHO cell membranes)
Settings: [3H]-NMS 1 nM
Protocol: CHO cell lines stably expressing cloned human hM1, hM2, hM3 and hM4 muscarinic receptor subtypes, respectively, were grown to near confluency in medium consisting of HAM's F-12 supplemented with 10% FBS and 250 μg/mL Geneticin. The cells were grown in a 5% CO2, 37° C. incubator and lifted with 2 mM EDTA in dPBS. Cells were collected by 5 minute centrifugation at 650×g, and cell pellets were either stored frozen at −80° C. or membranes were prepared immediately. For membrane preparation, cell pellets were resuspended in lysis buffer and homogenized with a Polytron PT-2100 tissue disrupter (Kinematica AG; 20 seconds×2 bursts). Crude membranes were centrifuged at 40,000×g for 15 minutes at 4° C. […] The protein concentration of the membrane suspension was determined by the method described in Lowry, O. et al., Journal of Biochemistry 193:265 (1951). […]
Radioligand binding assays were performed in 96-well microtiter plates in a total assay volume of 100 μL. […] Filter plates were rinsed three times with wash buffer (10 mM HEPES) to remove unbound radioactivity. […] The plates were then counted in a PerkinElmer Topcount liquid scintillation counter (PerkinElmer Inc., Wellesley, Mass.). Binding data were analyzed by nonlinear regression analysis with the GraphPad Prism Software package (GraphPad Software, Inc., San Diego, Calif.) using the one-site competition model. […]

T1 sequence (P20309 whole entry): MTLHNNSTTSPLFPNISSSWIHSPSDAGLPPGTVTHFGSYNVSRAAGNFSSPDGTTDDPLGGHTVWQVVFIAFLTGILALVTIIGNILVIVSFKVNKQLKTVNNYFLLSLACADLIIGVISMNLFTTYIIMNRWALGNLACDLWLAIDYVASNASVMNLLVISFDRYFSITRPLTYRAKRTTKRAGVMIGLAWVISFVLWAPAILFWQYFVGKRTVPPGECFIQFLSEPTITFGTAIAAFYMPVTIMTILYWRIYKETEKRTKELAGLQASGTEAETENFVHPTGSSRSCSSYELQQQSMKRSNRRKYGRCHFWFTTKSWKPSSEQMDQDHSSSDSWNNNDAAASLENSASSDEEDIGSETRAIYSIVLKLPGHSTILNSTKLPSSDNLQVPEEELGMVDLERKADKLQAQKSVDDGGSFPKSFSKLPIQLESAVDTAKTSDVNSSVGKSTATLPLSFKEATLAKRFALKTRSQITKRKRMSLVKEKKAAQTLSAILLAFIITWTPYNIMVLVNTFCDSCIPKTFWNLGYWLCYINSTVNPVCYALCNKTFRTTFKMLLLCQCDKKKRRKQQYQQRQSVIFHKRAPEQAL

pKi: > 8.30
Structure (SMILES): CN(CCN1CCC(OC(=O)Nc2ccccc2-c2ccccc2)CC1)C(=O)CCCCCN1CCC(C(N)=O)CC1 [Example 1, Biphenyl-2-ylcarbamic Acid 1-(2-{[6-(4-Carbamoylpiperidin-1-yl)hexanoyl]methylamino}ethyl)piperidin-4-yl Ester]

From patent US8067439B2, “Biphenyl compounds useful as muscarinic receptor antagonists” (Theravance, Inc., priority 2004, dated 2011)
